The record followed here is BindingDB's records for doi:10.1021/jm00096a016 (Kyowa Hakko Kogyo, 1992).

Usually Ki stands for the equilibrium dissociation constant of an inhibitor or competing ligand from its target. As a reminder, the IC50 is the point on the concentration scale where inhibition reaches its midpoint. Low readings indicate higher potency, high ones lower potency.

Assay [1] in a line: Binding affinity at TXA2 receptor by measuring its ability to displace [3H]U-46619 from guinea pig platelets.
A short description of assay [2]: Inhibition of the thromboxane A2 receptor assayed by binding to guinea pig platelets using [3H]U-46619 as radioligand.
A short description of assay [3]: Compound was tested for its binding affinity at Thromboxane A2 receptor by measuring its ability to displace [3H]U-46619 from guinea pig platelets.
The target in assay [4] is Thromboxane-A synthase (Bos taurus). The assay can be described thus: Inhibitory effect against thromboxane A2 synthase binding to bovine platelets.
The nature of assay [5]: Compound was tested for its inhibitory activity against TXA2 synthase obtained from bovine platelet microsomes.

As for `O=C(O)c1ccc2c(c1)C(SCCNS(=O)(=O)c1ccc3ccccc3c1)c1ccccc1CO2` (stereo not given), the inhibition constant (Ki) in assay [1] and in assay [2] was 14 nM in each case.
As for `O=C(O)c1ccc2c(c1)C(SCCNS(=O)(=O)c1ccccc1)c1ccccc1C=C2` (stereo not given), the inhibition constant (Ki) in assay [2] and in assay [3] was 25 nM throughout.
Regarding `O=C(O)c1ccc2c(c1)C(SCCNS(=O)(=O)c1cccs1)c1ccccc1CO2` (stereo not given), the Ki in assay [2] and in assay [3] was 5.7 nM throughout.
For the compound `O=C(O)c1ccc2c(c1)C(SCCNS(=O)(=O)c1ccccc1)c1cc(Br)ccc1CO2` (stereo not given), the inhibition constant Ki in assay [2] and in assay [3] was 6.8 nM in each case.
On to `Cc1ccsc1C(=O)NCCSC1c2ccccc2COc2ccc(C(=O)O)cc21` (stereo not given), for which the inhibition constant (Ki) in assay [1] and in assay [2] was 10 nM throughout.
As for `O=C(O)c1cccc(C(SCCNS(=O)(=O)c2ccccc2)c2ccccc2)c1` (stereo not given), the inhibition constant Ki in assay [1] and in assay [2] was 77 nM in each case.
Take `O=C(O)c1ccc2c(c1)OCc1ccccc1C2SCCNS(=O)(=O)c1ccccc1` (stereo not given): the IC50 in assay [4] and in assay [5] was 370 nM throughout.
As to `O=C(O)c1ccc2c(c1)C(SCCNS(=O)(=O)c1cccc([N+](=O)[O-])c1)c1ccccc1CO2` (stereo not given), the Ki in assay [1] and in assay [2] was 14 nM in each case.
Consider `O=C(O)c1ccc2c(c1)C(SCCNC(=O)c1ccccc1)c1ccccc1CO2` (stereo not given), for which, in assay [2], the affinity, expressed as Ki, was 44 nM.
As for `O=C(NCCSC1c2ccccc2COc2ccc(C(=O)O)cc21)Nc1ccccc1` (stereo not given), the half-maximal inhibitory concentration (IC50) in assay [4] and in assay [5] was 830 nM each time.
Turning to `COc1cc(C(=O)NCCSC2c3ccccc3COc3ccc(C(=O)O)cc32)cc(OC)c1OC` (stereo not given), the Ki in assay [1] and in assay [2] was 92 nM each time.
Take `COc1ccc(S(=O)(=O)NCCSC2c3ccccc3COc3ccc(C(=O)O)cc32)cc1` (stereo not given): the Ki in assay [3] amounted to 17 nM. That is a double-digit nanomolar value.
On to `O=C(O)c1ccc2c(c1)C(SCCNC(=S)NCc1ccccc1)c1ccccc1CO2` (stereo not given), for which the Ki in assay [1] and in assay [2] was 6.1 nM throughout.
For `O=C(O)c1ccc2c(c1)C(SCCNS(=O)(=O)c1ccc(C(F)(F)F)cc1)c1ccccc1CO2` (stereo not given), the inhibition constant Ki in assay [2] and in assay [3] was 20 nM each time.
Regarding `O=C(O)c1ccc2c(c1)C(SCCNC(=O)c1ccccc1O)c1ccccc1CO2` (stereo not given), the inhibitory constant (Ki) in assay [2] and in assay [3] was 5.1 nM throughout.
For the compound `Cc1ccc(S(=O)(=O)NCCSC2c3ccccc3COc3ccc(C(=O)O)cc32)cc1` (stereo not given), the Ki in assay [2] and in assay [3] was 27 nM throughout.
For `O=C(O)c1ccc2c(c1)C(SCCNS(=O)(=O)c1ccccc1)c1ccccc1CC2` (stereo not given), the inhibition constant (Ki) in assay [1] and in assay [2] was 30 nM throughout.
For `O=C(O)c1ccc2c(c1)C(SCCNS(=O)(=O)c1ccccc1[N+](=O)[O-])c1ccccc1CO2` (stereo not given), the Ki in assay [2] and in assay [3] was 15 nM in each case.
The compound `O=C(NCCSC1c2ccccc2COc2ccc(C(=O)O)cc21)OCc1ccccc1` (stereo not given) gave a Ki in assay [2] of 7.7 nM.
